{"source": "patent US10463730B2", "about": "(priority 2003, dated 2019)", "system": "xenogeneic GI-101A solid breast carcinoma tumors", "design": "species or system nu-/nu-mice", "conditions": "in vivo"}
{"molecule": "Nc1nc2c(ncn2COC(CO)CO)c(=O)[nH]1", "note": "[PBS+GCV, gancyclovir]", "values": [{"measurement": "Increase of average volume of tumors", "result": 91.8, "unit": "%"}]}
